In patent US12076464B2, “Drug eluting shape memory foam” (The Texas A&M University System, priority 2019, dated 2024):

Experiments:
Format in all cases: physicochemical
[1] = Solubility in DMSO and water
[2] = Drug uptake (loading) onto or into SMP foam from drug/PVA solutions
Method: An embodiment includes a method for creating a drug-eluting SMP foam. The method includes incubating the foam in a 0.017 mg/mL acriflavine solution (e.g., 1 mg/mL in acriflavine solution dimethyl sulfoxide (DMSO)) that is mixed with varying PVA solutions of 0%, 1%, 2%, 3%, 10% (wt./vol) overnight on a rotator at room temperature (n=3). Different PVA concentrations may be used to increase drug viscosity and drug uptake onto or into the foam. In other embodiments PVA is held constant and acriflavine concentrations are varied (which changes the PVA viscosity). Foams may then be removed from the respective drug/PVA solutions and dried in a vacuum chamber for 5 days. The foams may then be incubated in 0.4 mL phosphate-buffered saline (PBS) at 37° C. Supernatants may be removed at various time points and measured for fluorescence at 416/514 nm (Ex/Em). In an embodiment acriflavine is used as a cargo in the free drug form (which helps illustrate the release profile for drug solutions with different PVA concentrations). […] This may be due, at least in part, to the increased viscosity of the drug when combined with PVA, which enables the drug to be trapped within or on the pores present in the foam. […]

[3] = In vitro release of acriflavine from SMP foams into PBS at 37° C., fluorescence of supernatants
Method: An embodiment includes a method for creating a drug-eluting SMP foam. The method includes incubating the foam in a 0.017 mg/mL acriflavine solution (e.g., 1 mg/mL in acriflavine solution dimethyl sulfoxide (DMSO)) that is mixed with varying PVA solutions of 0%, 1%, 2%, 3%, 10% (wt./vol) overnight on a rotator at room temperature (n=3). Different PVA concentrations may be used to increase drug viscosity and drug uptake onto or into the foam. In other embodiments PVA is held constant and acriflavine concentrations are varied (which changes the PVA viscosity). Foams may then be removed from the respective drug/PVA solutions and dried in a vacuum chamber for 5 days. The foams may then be incubated in 0.4 mL phosphate-buffered saline (PBS) at 37° C. Supernatants may be removed at various time points and measured for fluorescence at 416/514 nm (Ex/Em). Regarding in vitro release of acriflavine from HDI-based SMP foams, see FIG. 1. […] This may be because of the increased loading of acriflavine that is due to PVA (and PVA's affinity for the foam). […] In vitro release of acriflavine from non-reticulated TMHDI 60 foam is addressed in FIG. 3.

Row | Molecule | solubility [1] | drug uptake onto or into the foam ([2]; drug solution without PVA (0% PVA), compared to solutions with increasing PVA concentration) | drug uptake onto or into the foam ([2]; increasing PVA concentrations, FIGS. 1, 2, 3) | acriflavine release from SMP foams (non-cumulative release curve) ([3]; HDI-based SMP foams, FIG. 1, increasing PVA concentration) | release profile ([3]; drug solution with 0% PVA) | acriflavine release from SMP foams (non-cumulative release curve) ([3]; non-reticulated TMHDI 60 (TH60) SMP foams, FIG. 3, increasing PVA concentration) | acriflavine release from SMP foams (non-cumulative release curve) ([3]; reticulated HH80 SMP foams, FIG. 2, increasing PVA concentration) | release profile ([3]; solutions with higher PVA concentrations)
1 | COc1cccc2c1C(=O)c1c(O)c3c(c(O)c1C2=O)C[C@@](O)(C(=O)CO)C[C@@H]3O[C@H]1C[C@H](N)[C@H](O)[C@H](C)O1 [Doxorubicin] | soluble in both DMSO and water |  |  |  |  |  |  | 
2 | Acriflavine | soluble in both DMSO and water | less drug uptake | increased drug uptake | increases (or at least differs) with increasing PVA concentration | delayed burst release | increased (or at least differs) with increasing PVA concentration | increased (or at least differs) with increasing PVA concentration | immediate release
